≈ marks a conversion by molar mass, not a printed value. Entries after “also recorded” stand apart in the source; their conditions may differ.
Tests used:
[1] = tested on: cells involved in the inflammatory response; test: Cellular inflammatory response in transgenic larvae (LYZ:Red) after SVCV infection, treatment by microinjection; assay type: in vivo, Danio rerio; conditions: microinjection 2 nl concomitant with SVCV, 2 hpi, vs control groups
Method: (§1) Anti-inflammatory activity studies of the compounds were carried out in wild type fish, determining the expression levels of the pro-inflammatory cytokines IL-1β and IL-6. Transgenic larvae with labeled fluorescent neutrophils (Tg(Mpx:GFP)i114) or fluorescent myeloid cells (Tg(LYZ:Red)) were also used to assess how different treatments affect the inflammatory response of these cells. The inflammatory stimulus used was both the virus itself, which causes activation of the inflammasome and death of macrophages by pyroptosis (Varela et al. J. Virol. 2016, 88, 12026), as well as an acute stimulus of inflammation generated by a wound in the tail. The migration of fluorescent leukocytes from these transgenic lines was studied by means of microscopy and image analysis.
In a first assay, the cellular response to inflammation was quantified in transgenic Danio rerio larvae (LYZ:Red) after an infection with SVCV treated or untreated (control) with the AG1 compounds (28 μM), AG3 (10 μM), AG4 (10 μM), AG5 (10μM) and EAp (10 μg/ml). The treatments were carried out by microinjection (2 nl in the duct of Cuvier) of the drugs in fish 3 days post-fertilization (5-10 fish/well), concomitantly administering the virus and the different compounds. […] At 2 h post-injection (2 hpi), the number of cells involved in the inflammatory response was determined.

[2] = tested on: Salmonella typhimurium strains TA98, TA100, TA102, TA1535 and TA1537; test: Ames test; assay type: cell-based
Method: The aim of the study was to characterize the possible genotoxic effect of the assay product AG-5 by means of the Ames test (Ames et al. Proc. Nat. Acad. Sci. USA 1973, 70, 783). To that end, it was determined in a study carried out under GLP whether AG-5 has the ability to produce gene mutations, either by substitution or by mismatch, in Salmonella typhimurium bacteria histidine (His-) auxotrophs.
The study was carried out with strains TA98, TA100, TA102, TA1535 and TA1537 in the presence and in the absence of metabolic activation (S9 mixture). The doses recommended by the OECD guidelines were tested: 100 mg/ml, that is, equivalent to 5000 μg/plate, and […] other lower concentrations (33.3; 11.1; 3.7 and 1.2 mg/ml). […] The results were negative in the 5 bacterial strains (TA98, TA100, TA102, TA1535 and TA1537) both in the presence and in the absence of metabolic activation.

[3] = Solubility of the product in PBS; assay type: physicochemical; conditions: aqueous buffer
[4] = tested on: New Zealand rabbits; test: Single intravenous dose toxicity (phase I, OECD 425); assay type: in vivo; conditions: AG-5 in PBS (3 mg/ml)
Method: (§2) As part of the preclinical evaluation of toxicity, the purpose of this study was to define the MRD of AG-5, formulated as a solution in PBS (3 mg/ml), in a non-rodent mammalian species, that is, rabbit, under GLP and to provide data of toxicological interest.
(§3) To this end, a two-phase study was designed: i) in phase I, the product was administered intravenously in a single dose and following OECD guidelines 425, to a total of 4 New Zealand rabbits (2 males and 2 females) of about 2.5 kg and 12-13 weeks old, and the maximum tolerated dose (MTD) range was provisionally determined; ii) in phase II, the animals (a total of 4 New Zealand rabbits of about 2.5 kg and 12-13 weeks old) were given a daily intravenous administration for 7 days and the MRD that will serve as a reference (highest dose to be used) was confirmed.
(§4) The initial dose to be used in phase I was selected based on the data obtained by the laboratory after the administration of AG-5 in rats at a repeated dose of up to 30 mg/kg, for 7 days. In this study, the dose of 30 mg/kg was established as the MRD to be used in subsequent general toxicity studies. […] The dose to be tested in phase II was determined based on the results obtained in phase I, selecting a dose from the dose interval lower than that at which serious toxic effects would have been observed, with a maximum of 15 mg/kg/day as MFD, in application of the ICH M3(R2) guideline. The study considered the complete assessment of the symptoms, that is, intensity, time of onset and reversibility, the study of analytical (hematological and biochemical) parameters and the determination of the weight of toxicity target organs, to be fundamental.

[5] = tested on: migration of neutrophils to the wound; test: Acute inflammatory response produced by a tail wound, neutrophil migration in Tg(Mpx:GFP)i114 larvae, bath treatment; assay type: in vivo, Danio rerio; conditions: 10 μM by bath, tail cut after 24 hours, neutrophils counted 24 hours after the wound
Method: as §1
In a second assay, the effect of the different compounds on an acute inflammatory response produced by a wound was analyzed. To that end, transgenic fish with fluorescent neutrophils (Tg(Mpx:GFP)i114) were used and their migration to the affected area was analyzed. The AG1 (5 μM), AG3 (5 μM), AG4 (10 μM), AG5 (10 μM) compounds and EAp (10 μg/ml) were administered by bath and after 24 hours the wound was made by cutting the end area of the tail. After 24 hours, neutrophils that migrated to the area of the wound were counted. […] FIG. 3.

[6] = tested on: Wistar rats; test: Single intravenous dose toxicity (phase I, OECD 425); assay type: in vivo; conditions: AG-5 in PBS (3 mg/ml)
Method: (§5) As part of the preclinical toxicity evaluation, the purpose of this study was to define the maximum repeated dose (MRD) of AG-5, formulated as a solution in PBS (3 mg/ml), in a mammalian rodent species under good laboratory practice (GLP) and to provide data of toxicological interest. To this end, a two-phase study was designed: i) in phase I, the product was administered intravenously in a single dose and following OECD guidelines 425 (OECD Guidelines for the testing of chemicals. Guidelines 425: Acute oral toxicity: up and down procedure. Adopted 3 Oct. 2008), to a total of 12 8-week old female Wistar rats by means of a dose escalation process (incremental factor 3.2), the maximum tolerated dose (MTD) was provisionally determined; ii) in phase II, the animals (a total of 8-week old Wistar rats, 15 males and 15 females) were given a daily intravenous administration for 7 days and the MRD was confirmed.
The initial dose to be used in phase I was selected from the sequence of doses included in OECD guidelines 425, that is, 5.5, 17.5 and 30 mg/kg of body weight. The doses to be tested in phase II were determined based on the results obtained in phase I, selecting 3 doses from the dose interval lower than that in which serious toxic effects would have been observed, that is, 15, 20 and 30 mg/kg/day, with 30 mg/kg being the maximum feasible dose (MFD), in application of the ICH M3(R2) guideline (ICH Harmonized Tripartite Guideline. Non-Clinical Safety Studies for the Conduct of Human Clinical Trials and Marketing Authorization for Pharmaceuticals M3 (R2). Current Step 5 version dated 11 Jun. 2009). The study considered the complete assessment of the symptoms, that is, intensity, time of onset and reversibility, the study of analytical (hematological and biochemical) parameters and the determination of the weight of toxicity target organs, to be fundamental.

[7] = tested on: New Zealand rabbits; test: Repeated dose toxicity, daily intravenous administration for 7 days (phase II); assay type: in vivo; conditions: AG-5 in PBS (3 mg/ml), intravenous daily for 7 days
Method: as §2, §3, §4

[8] = tested on: IL-6; test: IL-6 gene expression by qPCR in wild type larvae infected with SVCV, bath treatment; assay type: in vivo, Danio rerio; conditions: 10 μM bath for 24 h, then SVCV injection, qPCR at 24 h, vs untreated control groups
Method: as §1
In a third and final assay, the gene expression of proinflammatory cytokines was determined in Danio rerio (wild type) larvae treated with the AG1 (5 μM), AG3 (5 μM), AG4 (10 μM), AG5 (10 μM) compounds and EAp (10 μg/ml), and subsequently infected with SVCV. The treatments were carried out in a bath for 24 h on fish 1 day post-fertilization (10 fish/well). The experiment was carried out in quadruplicate (n=4). On the second day post-fertilization each fish was injected (2 nl in the duct of Cuvier) 5×10^4 TCID50/mL of SVCV. At 24 h, the expression of IL-6 was determined by qPCR.

[9] = tested on: Wistar rats; test: Repeated dose toxicity, daily intravenous administration for 7 days (phase II); assay type: in vivo; conditions: AG-5 in PBS (3 mg/ml)
Method: as §5
The initial dose to be used in phase I was selected from the sequence of doses included in OECD guidelines 425, that is, 5.5, 17.5 and 30 mg/kg of body weight. […]

SMILES | cellular inflammatory response induced by the viral infection (number of cells involved in the inflammatory response) ([1]; 10 μM) | precipitation of the product or toxicity (preliminary dose test) ([2]; 100 mg/ml (5000 μg/plate) and lower concentrations (33.3; 11.1; 3.7 and 1.2 mg/ml)) | mutagenicity test (gene mutations) ([2]; 5 strains, in the presence and in the absence of metabolic activation (S9 mixture), up to 5000 μg/plate) | solubility [3] | LD50 estimated in rabbits ([4]; intravenous single dose) | MTD level in rabbits in a single dose ([4]; intravenous single dose) | lethality ([4]; intravenous single dose 15 mg/kg, New Zealand rabbits) | associated signs of toxicity ([4]; intravenous single dose 15 mg/kg, rabbits) | inflammatory response generated by the migration of neutrophils to the wound [5] | LD50 estimated in rats [6] | MTD level in rats in a single dose [6] | signs of toxicity related to the administration ([6]; all doses tested in phase I) | changes in analytical parameters, macroscopic alterations in abdominal and thoracic organs, absolute or relative weight of the organs ([7]; 15 mg/kg, rabbit study) | mortality or alterations in the general symptoms ([7]; 15 mg/kg, rabbit study) | MRD (maximum repeated dose) ([7]; rabbits) | IL-6 production (gene expression) in infection by SVCV [8] | MRD (maximum repeated dose) ([9]; intravenous daily for 7 days) | changes in analytical parameters, macroscopic alterations in abdominal and thoracic organs, absolute or relative weight of the organs ([9]; intravenous daily for 7 days, 15, 20 and 30 mg/kg) | cellular inflammatory response induced by the viral infection (number of cells involved in the inflammatory response) ([1]; 28 μM)
C=C1CC[C@@H]2[C@](C)(CO)[C@H](O)CC[C@@]2(C)[C@@H]1C[C@H](C1=CCOC1=O)S(=O)(=O)O [AG5, 14-deoxy-12(R)-sulfo-andrographolide] | significantly reduce | No precipitation of the product or toxicity was observed | negative; also recorded: did not induce gene mutations | 3000 µg/mL (≈ 7.24 mM) | greater than 15 mg/kg of body weight | 15 mg/kg of body weight | did not produce lethality in any animal | No associated signs of toxicity were observed | significantly decreased | greater than 30 mg/kg of body weight | 30 mg/kg of body weight | nor did it produce signs of toxicity | No toxicologically relevant changes | did not produce mortality or alterations in the general symptoms | 15 mg/kg | significantly reduce | 30 mg/kg | No toxicologically relevant changes | –
C=C1CCC2C(C)(CO)C(O)CCC2(C)C1CC=C1C(=O)OCC1O (stereo not shown) [AG1, 3-[2-[-decahydro-6-hydroxy-5-(hydroxy-methyl)-5,8a-dimethyl-2-methylene-1-naphthalenyl]ethylidene]dihydro-4-hydroxy-2(3H)-furanone, reference compound] | – | – | – | – | – | – | – | – | – | – | – | – | – | – | – | – | – | – | significantly reduce

Reference: US20230372289A1, “ANDROGRAPHOLIDE DERIVATIVE FOR USE IN THE TREATMENT OF INFLAMMATORY DISEASES ASSOCIATED WITH A CYTOKINE STORM” (CONSEJO SUPERIOR DE INVESTIGACIONES CIENTÍFICAS (CSIC), priority 2020, published 2023)
